Assay results: patent US10604527B2, “Pyrazine compounds for the treatment of hepatitis B infection” (Hoffmann-La Roche Inc., priority 2016, dated 2020)

Test system: HBV
Assay: HBV inhibition assay in HepG2.2.15 cells (extracellular HBV DNA by qPCR)
Format: cell-based
Settings: Hepatitis B virus, 120 h, extracellular HBV DNA in culture supernatant by qPCR, five days after compound treatment
Experimental: HepG2.2.15 is a stably-transfected cell line containing the HBV genome. It is derived from the hepatoblastoma cell line Hep G2 (American Type Culture Collection, ATCC® HB-8065™) by the published procedures described in reference: M A Selles et al. Proc. Natl. Acad. Sci. USA 1987, 84, 1005-1009. The cell line was maintained in Dulbecco's modified Eagle's medium (DMEM)-F12 medium supplemented with 10% fetal bovine serum, 20 mM L-glutamine, 0.1 mM NEAA, 50 U/mL penicillin, 50 μg/mL streptomycin, and 0.3 mg/mL of G418.
HepG2.2.15 cells were seeded into 96-well plates at a density of 3×10^4 cells per well in 100 μL DMEM/F12 media (Life Science, Cat. #: 11320-033) supplemented with 2.5% fetal bovine serum, 20 mM L-glutamine, 0.1 mM NEAA, 50 U/mL penicillin, 50 U/mL streptomycin and cultured overnight at 37° C. The test compounds were serially half-log diluted in DMSO, then diluted 100 times in culture media. 100 μL diluted solution of tested compounds were added into the plates to reach 0.5% final concentration of DMSO in every well. Five days after compound treatment, culture supernatant was collected for further analysis.
For quantitative PCR detection of extracellular HBV DNA, culture supernatant was processed by 500 μg/mL Proteinase K (Sigma, Cat. #: P2308) digestion at 50° C. for 1 hour. After heat inactivation of the enzyme at 95° C. for 15 minutes, the samples were subjected to HBV DNA quantification by qPCR. The effective compound concentration at which HBV replication inhibited by 50% (EC50) was determined.

Work on `C[C@H]1Cn2ncc(N(C)S(=O)(=O)C3CC3)c2CN1C(=O)Nc1cc(F)c(F)c(F)c1` [Example 41, (6S)-3-[cyclopropylsulfonyl(methyl)amino]-6-methyl-N-(3,4,5-trifluorophenyl)-6,7-dihydro-4H-pyrazolo[1,5-a]pyrazine-5-carboxamide] yielded an EC50 of 0.086 µM.

`C[C@H]1Cn2ncc(S(=O)(=O)N(C)C)c2CN1C(=O)Nc1ccc(F)c(Cl)c1` [Example 24, (6S)-N-(3-chloro-4-fluoro-phenyl)-3-(dimethylsulfamoyl)-6-methyl-6,7-dihydro-4H-pyrazolo[1,5-a]pyrazine-5-carboxamide] gave an EC50 of 0.142 µM.

`CCS(=O)(=O)N(C)c1cnn2c1CN(C(=O)Nc1cc(F)c(F)c(F)c1)[C@@H](C)C2` [Example 40, (6S)-3-[ethylsulfonyl(methyl)amino]-6-methyl-N-(3,4,5-trifluorophenyl)-6,7-dihydro-4H-pyrazolo[1,5-a]pyrazine-5-carboxamide] was tested, and the EC50 was 0.169 µM.

Compound `CC(C)S(=O)(=O)c1cnn2c1CN(C(=O)Nc1ccnc(Cl)c1)[C@@H](C)C2` [Example 18, (6S)-N-(2-chloro-4-pyridyl)-3-isopropylsulfonyl-6-methyl-6,7-dihydro-4H-pyrazolo[1,5-a]pyrazine-5-carboxamide] has an EC50 of 0.471 µM.

`CC1Cn2ncc(S(=O)(=O)C3CCOC3)c2CN1C(=O)Nc1ccc(F)c(Cl)c1` (stereo not shown) [Example 10, N-(3-chloro-4-fluoro-phenyl)-6-methyl-3-tetrahydrofuran-3-ylsulfonyl-6,7-dihydro-4H-pyrazolo[1,5-a]pyrazine-5-carboxamide] showed an EC50 of 0.032 µM.

Work on `C[C@H]1Cn2ncc(S(=O)(=O)N3CCC(F)(F)C3)c2CN1C(=O)Nc1cc(F)c(F)c(F)c1` [Example 28, (6S)-3-(3,3-difluoropyrrolidin-1-yl)sulfonyl-6-methyl-N-(3,4,5-trifluorophenyl)-6,7-dihydro-4H-pyrazolo[1,5-a]pyrazine-5-carboxamide] yielded an EC50 of 0.168 µM.

Compound `CC(C)S(=O)(=O)c1cnn2c1CN(C(=O)Nc1ccnc(C(F)F)c1)[C@@H](C)C2` [Example 21, (6S)-N-[2-(difluoromethyl)-4-pyridyl]-3-isopropylsulfonyl-6-methyl-6,7-dihydro-4H-pyrazolo[1,5-a]pyrazine-5-carboxamide] has an EC50 of 0.272 µM.

In the case of `CC1Cn2ncc(OC3CCCC3)c2CN1C(=O)Nc1ccc(F)c(Cl)c1` (stereo not shown) [Example 2, N-(3-chloro-4-fluoro-phenyl)-3-(cyclopentoxy)-6-methyl-6,7-dihydro-4H-pyrazolo[1,5-a]pyrazine-5-carboxamide], the EC50 is reported as 0.008 µM.

`CC1Cn2ncc(S(=O)(=O)C3CCCC3)c2CN1C(=O)Nc1ccc(F)c(Cl)c1` (stereo not shown) [Example 11, N-(3-chloro-4-fluoro-phenyl)-3-cyclopentylsulfonyl-6-methyl-6,7-dihydro-4H-pyrazolo[1,5-a]pyrazine-5-carboxamide] showed an EC50 of 0.011 µM.

With `C[C@H]1Cn2ncc(Oc3ccc(F)cn3)c2CN1C(=O)Nc1cc(F)c(F)c(F)c1` [Example 9, (6S)-3-[(5-fluoro-2-pyridyl)oxy]-6-methyl-N-(3,4,5-trifluorophenyl)-6,7-dihydro-4H-pyrazolo[1,5-a]pyrazine-5-carboxamide] the EC50 was 0.24 µM.

`C[C@H]1Cn2ncc(S(=O)(=O)N[C@H]3CCOC3)c2CN1C(=O)Nc1ccc(F)c(Cl)c1` [Example 26, (6S)-N-(3-chloro-4-fluoro-phenyl)-6-methyl-3-[[(3S)-tetrahydrofuran-3-yl]sulfamoyl]-6,7-dihydro-4H-pyrazolo[1,5-a]pyrazine-5-carboxamide] showed an EC50 of 0.365 µM.

`C[C@H]1Cn2ncc(S(=O)(=O)N3CC[C@H](O)C3)c2CN1C(=O)Nc1cc(F)c(F)c(F)c1` [Example 33, (6S)-3-[(3S)-3-hydroxypyrrolidin-1-yl]sulfonyl-6-methyl-N-(3,4,5-trifluorophenyl)-6,7-dihydro-4H-pyrazolo[1,5-a]pyrazine-5-carboxamide] gave an EC50 of 0.145 µM.

For `CC1Cn2ncc(S(=O)(=O)C(C)C)c2CN1C(=O)Nc1ccc(F)c(Cl)c1` (stereo not shown) [Example 12, N-(3-chloro-4-fluoro-phenyl)-3-isopropylsulfonyl-6-methyl-6,7-dihydro-4H-pyrazolo[1,5-a]pyrazine-5-carboxamide], the EC50 was 0.011 µM.
